{"source": "ChEMBL document CHEMBL5614461", "about": "“Design, synthesis and biological evaluation of indazole derivatives as VEGFR-2 kinase inhibitors with anti-angiogenic properties” (Eur J Med Chem, 2024)", "key": {"[1]": {"test": "in vivo", "settings": "male, Sprague-Dawley, rat, po, 10 mg/kg"}, "[2]": {"test": "in vivo", "settings": "male, Sprague-Dawley, rat, po, 10 mg/kg", "remark": "listed apart in the source"}, "[3]": {"test": "in vivo", "settings": "male, Sprague-Dawley, rat, iv, 1 mg/kg"}, "[4]": {"test": "in vivo", "settings": "male, Sprague-Dawley, rat, iv, 1 mg/kg", "remark": "listed apart in the source"}, "[5]": {"test": "in vivo", "settings": "male, Sprague-Dawley, rat, po, 10 mg/kg", "remark": "listed apart in the source"}, "[6]": {"test": "in vivo", "settings": "male, Sprague-Dawley, rat, iv, 1 mg/kg", "remark": "listed apart in the source"}, "[7]": {"test": "in vivo", "settings": "male, Sprague-Dawley, rat, po, 10 mg/kg", "remark": "listed apart in the source"}, "[8]": {"test": "in vivo", "settings": "male, Sprague-Dawley, rat, iv, 1 mg/kg", "remark": "listed apart in the source"}}, "data": [{"smiles": "O=C(Cc1ccccc1F)Nc1cccc(Sc2ccc3c(/C=C/c4ccccn4)n[nH]c3c2)c1", "values": [{"measurement": "Cmax at 24 h", "setting": "[1]", "value": 484, "unit": "ng/mL"}, {"measurement": "Tmax at 24 h", "setting": "[2]", "value": 1.67, "unit": "h"}, {"measurement": "Cmax at 24 h", "setting": "[3]", "value": 1470, "unit": "ng/mL"}, {"measurement": "MRT last at 24 h", "setting": "[4]", "value": 1.62, "unit": "h"}, {"measurement": "MRT last at 24 h", "setting": "[5]", "value": 2.73, "unit": "h"}, {"measurement": "AUC(0-t) at 24 h", "setting": "[6]", "value": 1590, "unit": "ng·h/mL"}, {"measurement": "AUC(0-t) at 24 h", "setting": "[7]", "value": 1670, "unit": "ng·h/mL"}, {"measurement": "Tmax at 24 h", "setting": "[8]", "value": 1.8, "unit": "min"}]}]}
